{
  "source": "patent US20190167576A1",
  "about": "“USE OF HIGH AFFINITY MONOCLONAL ANTIBODY PRODUCT BINDERS TO INCREASE THE DURATION OF ACTION OF THERAPEUTIC MONOCLONAL ANTIBODY PRODUCTS IN A BIOLOGIC TISSUE” (priority 2016, published 2019)",
  "biological_target": "monoclonal antibody products",
  "details": "binding to monoclonal antibody products; read-out: dissociation constant (KD)",
  "note": "pKd: −log10 of the molar value.",
  "data": [
    {"smiles": "Nc1cccc(Nc2nc(NCCO)nc(NCC(O)CNc3nc(NCCO)nc(Nc4cccc(N)c4)n3)n2)c1", "note": "[Compound 1, 1,3-bis({4-[(3-aminophenyl)amino]-6-[(2-hydroxyethyl)amino]-1,3,5-triazin-2-yl}amnio)propan-2-ol]", "values": [
      {"measurement": "pKd", "result": "> 6.00"}
    ]}
  ]
}
